Experimental data taken from the supplement of paper PMC5908809.

Assays:
[1] = system: normal NK cells expanded with K562-aAPC; assay: drug sensitivity score (DSS) (DSS units); higher = more sensitive; extreme values may be limits of the assay; conditions: 72 h; IL-2 2.5 ng/mL
Description: (§1)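 Drug sensitivity and resistance testing on K562-aAPC-expanded normal NK cells: 5 concentrations (10-fold steps over a 10,000-fold range), 72 h at 37 °C, viability by CellTiter-Glo normalised to DMSO and benzethonium chloride controls; DSS from the fitted curve.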

NK-92 (IL-2 2.5 ng/mL) [2] = assay: as above; conditions: 72 h
NK-YS (IL-2 2.5 ng/mL) [3] = assay: as above; conditions: 72 h
[4] = system: normal primary NK cells, pool 3 (3 donors) (IL-2 2.5 ng/mL); assay: as above; conditions: 72 h
[5] = system: normal primary NK cells, pool 1 (3 donors), resting (IL-2 0 ng/mL); assay: as above; conditions: 72 h
KHYG-1 (IL-2 2.5 ng/mL) [6] = assay: as above; conditions: 72 h
[7] = system: normal primary NK cells, pool 1 (3 donors) (IL-2 2.5 ng/mL); assay: as above; conditions: 72 h
[8] = system: normal primary NK cells, pool 2 (3 donors) (IL-2 2.5 ng/mL); assay: as above; conditions: 72 h
SNK-6 (IL-2 2.5 ng/mL) [9] = assay: as above; conditions: 72 h
KAI3 (IL-2 2.5 ng/mL) [10] = assay: as above; conditions: 72 h
NKL (IL-2 2.5 ng/mL) [11] = assay: as above; conditions: 72 h
IMC-1 (IL-2 20 ng/mL) [12] = assay: as above; conditions: 72 h
YT (IL-2 2.5 ng/mL) [13] = assay: as above; conditions: 72 h
DERL-7 (IL-2 2.5 ng/mL) [14] = assay: as above; conditions: 72 h
NK-92 (IL-2 2.5 ng/mL) [15] = assay: percent inhibition of viability; higher = more inhibition; conditions: 72 h
NK-YS (IL-2 2.5 ng/mL) [16] = assay: as above; conditions: 72 h
[17] = system: normal primary NK cells, pool 3 (3 donors) (IL-2 2.5 ng/mL); assay: as above; conditions: 72 h
[18] = system: normal primary NK cells, pool 1 (3 donors), resting (IL-2 0 ng/mL); assay: as above; conditions: 72 h
KHYG-1 (IL-2 2.5 ng/mL) [19] = assay: as above; conditions: 72 h
[20] = system: normal primary NK cells, pool 1 (3 donors) (IL-2 2.5 ng/mL); assay: as above; conditions: 72 h
[21] = system: normal primary NK cells, pool 2 (3 donors) (IL-2 2.5 ng/mL); assay: as above; conditions: 72 h
SNK-6 (IL-2 2.5 ng/mL) [22] = assay: as above; conditions: 72 h
KAI3 (IL-2 2.5 ng/mL) [23] = assay: as above; conditions: 72 h
NKL (IL-2 2.5 ng/mL) [24] = assay: as above; conditions: 72 h
IMC-1 (IL-2 20 ng/mL) [25] = assay: as above; conditions: 72 h
YT (IL-2 2.5 ng/mL) [26] = assay: as above; conditions: 72 h
DERL-7 (IL-2 2.5 ng/mL) [27] = assay: as above; conditions: 72 h
[28] = system: normal NK cells expanded with K562-aAPC; assay: as above; conditions: 72 h, IL-2 2.5 ng/mL
Description: as §1

O=C(Nc1c[nH]nc1-c1nc2ccc(CN3CCOCC3)cc2[nH]1)NC1CC1 [AT9283] (max concentration tested 1000 nM)
Conditions | drug sensitivity score
DERL-7 (IL-2 2.5 ng/mL) [14] | 16
IMC-1 (IL-2 20 ng/mL) [12] | 13.1
KAI3 (IL-2 2.5 ng/mL) [10] | 9.99
KHYG-1 (IL-2 2.5 ng/mL) [6] | 15.2
NK-92 (IL-2 2.5 ng/mL) [2] | 9.6
NK-YS (IL-2 2.5 ng/mL) [3] | 10.4
NKL (IL-2 2.5 ng/mL) [11] | 8.19
SNK-6 (IL-2 2.5 ng/mL) [9] | 15.5
YT (IL-2 2.5 ng/mL) [13] | 4.99
[1] | 11.1
[4] | 0
[5] | 0
[7] | 0.59
[8] | 0

percent inhibition of viability [%]
Conditions | 0.1 nM | 1 nM | 10 nM | 100 nM | 1000 nM
DERL-7 (IL-2 2.5 ng/mL) [27] | 0.91 | 0.04 | 7.11 | 81.9 | 98.3
IMC-1 (IL-2 20 ng/mL) [25] | -3.86 | -1.55 | -6.66 | 65.3 | 100
KAI3 (IL-2 2.5 ng/mL) [23] | -1.1 | -5.66 | 8.51 | 45.9 | 76.8
KHYG-1 (IL-2 2.5 ng/mL) [19] | 0.97 | -2.56 | 0.97 | 83.4 | 96
NK-92 (IL-2 2.5 ng/mL) [15] | 3.17 | 8.69 | 0.17 | 50.1 | 67.7
NK-YS (IL-2 2.5 ng/mL) [16] | -4.25 | -5.41 | -2.2 | 57.1 | 62.4
NKL (IL-2 2.5 ng/mL) [24] | -4.9 | -5.16 | -3.64 | 38.5 | 64.4
SNK-6 (IL-2 2.5 ng/mL) [22] | 13.2 | 8.33 | 13.9 | 73.1 | 96.5
YT (IL-2 2.5 ng/mL) [26] | 0.76 | -0.55 | 3.44 | 18.3 | 51.5
[17] | -15.9 | -12.2 | -13.3 | -0.35 | 9.39
[18] | -10.1 | -11 | -42.4 | -105 | -157
[20] | -12.6 | -14 | -13.3 | 12.2 | 12.7
[21] | -12.3 | -10.8 | -12.5 | 0.3 | 9.78
[28] | 0.7 | -5.39 | 3.23 | 57.8 | 65.9

COc1cc(N2CCN(C)CC2)ccc1Nc1nccc(-c2cn(C)c3cnccc23)n1 [AZ191] (max concentration tested 10000 nM)
Conditions | drug sensitivity score
DERL-7 (IL-2 2.5 ng/mL) [14] | 9.03
IMC-1 (IL-2 20 ng/mL) [12] | 6.03
KAI3 (IL-2 2.5 ng/mL) [10] | 6.56
KHYG-1 (IL-2 2.5 ng/mL) [6] | 7.01
NK-92 (IL-2 2.5 ng/mL) [2] | 4.21
NK-YS (IL-2 2.5 ng/mL) [3] | 6.95
NKL (IL-2 2.5 ng/mL) [11] | 7.17
SNK-6 (IL-2 2.5 ng/mL) [9] | 4.58
YT (IL-2 2.5 ng/mL) [13] | 2.31
[1] | 6.54
[4] | 4.48
[5] | 3.59
[7] | 5.01
[8] | 4.59

percent inhibition of viability [%]
Conditions | 1 nM | 10 nM | 100 nM | 1000 nM | 10000 nM
DERL-7 (IL-2 2.5 ng/mL) [27] | 7.49 | 2.85 | 4.6 | 22.2 | 100
IMC-1 (IL-2 20 ng/mL) [25] | -5.47 | 3.31 | -0.27 | 2.63 | 101
KAI3 (IL-2 2.5 ng/mL) [23] | -2.82 | -0.25 | 1.51 | 7.76 | 96.3
KHYG-1 (IL-2 2.5 ng/mL) [19] | 0.79 | 2.96 | 3.04 | 14.1 | 84
NK-92 (IL-2 2.5 ng/mL) [15] | 2.97 | 2.04 | -3.34 | -19.2 | 93.8
NK-YS (IL-2 2.5 ng/mL) [16] | -4.12 | 2.61 | 2.04 | 8.64 | 101
NKL (IL-2 2.5 ng/mL) [24] | 0.2 | -6.29 | 1.16 | 9.93 | 100
SNK-6 (IL-2 2.5 ng/mL) [22] | -18.5 | -11.7 | -15.3 | -7.38 | 92
YT (IL-2 2.5 ng/mL) [26] | 2.03 | 4.34 | 2.77 | 1.55 | 41.9
[17] | -10.6 | -7.12 | 4.76 | -17.3 | 97.8
[18] | 1.62 | -14.6 | -3.74 | -36.1 | 89
[20] | 7.5 | -5.03 | -5.7 | -4.75 | 96.8
[21] | -12.1 | -5.94 | -2.76 | -11.2 | 95.5
[28] | -2.34 | 0.52 | -4.12 | 6.6 | 100

N[C@@H]1CCCN(c2c(/C=C3\SC(=O)NC3=O)cccc2-c2ccccc2)C1 [AZD1208] (max concentration tested 10000 nM)
Conditions | drug sensitivity score
DERL-7 (IL-2 2.5 ng/mL) [14] | 9.28
IMC-1 (IL-2 20 ng/mL) [12] | 0
KAI3 (IL-2 2.5 ng/mL) [10] | 5.48
KHYG-1 (IL-2 2.5 ng/mL) [6] | 1.82
NK-92 (IL-2 2.5 ng/mL) [2] | 0
NK-YS (IL-2 2.5 ng/mL) [3] | 2.84
NKL (IL-2 2.5 ng/mL) [11] | 7.1
SNK-6 (IL-2 2.5 ng/mL) [9] | 0.26
YT (IL-2 2.5 ng/mL) [13] | 0
[1] | 5.29
[4] | 0.17
[5] | 6.52
[7] | 3.28
[8] | 1.86

percent inhibition of viability [%]
Conditions | 1 nM | 10 nM | 100 nM | 1000 nM | 10000 nM
DERL-7 (IL-2 2.5 ng/mL) [27] | 1.77 | 2.67 | 16.4 | 40.2 | 56.5
IMC-1 (IL-2 20 ng/mL) [25] | -4.38 | -1.65 | -10.7 | -5.11 | -8.15
KAI3 (IL-2 2.5 ng/mL) [23] | -0.84 | 0.89 | 7.33 | 28.1 | 34.3
KHYG-1 (IL-2 2.5 ng/mL) [19] | -4.34 | -1.4 | 1.04 | 10.7 | 23.3
NK-92 (IL-2 2.5 ng/mL) [15] | -9.08 | -8.5 | -4.31 | 0.29 | 9
NK-YS (IL-2 2.5 ng/mL) [16] | -4.63 | 0.2 | 2.23 | 14.4 | 31.6
NKL (IL-2 2.5 ng/mL) [24] | -10.7 | -16.5 | 4.37 | 35.7 | 49.5
SNK-6 (IL-2 2.5 ng/mL) [22] | -0.39 | 4.45 | -2.55 | 5.71 | 12
YT (IL-2 2.5 ng/mL) [26] | -7.46 | -4.31 | -0.8 | 3.09 | 7.52
[17] | -9.02 | -6.59 | -2.09 | 5.05 | 11.5
[18] | -10.1 | 0.65 | 23.9 | 23.6 | 23
[20] | -8.45 | -3.78 | 9.24 | 17.3 | 18.6
[21] | -5.92 | -0.84 | 8.9 | 12.8 | 19.5
[28] | -4.31 | -0.72 | 10.2 | 26 | 28.9
